Patent publication EP0432983A2 (priority 1989, dated 1991)
In brackets after ≈: the same amount, converted by molar mass.

Assays:
[1] = test system: HSV-1 (herpes simplex virus, type 1); assay: General anti-viral assay, HSV-1 in CV-1 cells (plaque reduction); type: cell-based; settings: Human alphaherpesvirus 1, CV-1, read-out: IC50 µg/ml approx
[2] = test system: BHK (Hamster kidney fibroblast); assay: Cytotoxicity assay, BHK; type: cell-based
Description: (§1) With compounds AH-3, AH-4 and AH-5, four general anti-tumour assays and two cytotoxicity assays were performed. Current screening protocols were employed using test substance diluted as above and at varying concentrations. Tests were performed against the tumour cells P-388 (mouse DBA/2 lymphoid neoplasm), A-549 (human lung carcinoma), HT-29 (human colon carcinoma) and MCF-7 (human breast carcinoma) and for the cytotoxicity assays against CV-1 (monkey kidney fibroblast) and BHK (Hamster kidney fibroblast).
(§2) Scoring is performed as follows: (-) no activity - the number of cells is equal to the control of growth, 0-40% cell inhibition (+) low activity - numbers of cells are reduced by approx 50-60% (++) good activity - numbers of cells are reduced by approx 70-90% (+++) very good activity - there is 100% cell inhibition [(+) is the approximate IC₅₀]

[3] = test system: P-388 (mouse DBA/2 lymphoid neoplasm); assay: General anti-tumour assay, P-388; type: cell-based
Description: as §1, §2

[4] = test system: VSV (Vesicular Stomatitis Virus); assay: microbe, parasite or virus in culture; type: cell-based; settings: BHK, read-out: IC50 µg/ml approx
[5] = test system: MCF-7 (human breast carcinoma); assay: General anti-tumour assay, MCF-7; type: cell-based
Description: as §1, §2

[6] = test system: HT-29 (human colon carcinoma); assay: General anti-tumour assay, HT-29; type: cell-based
Description: as §1, §2

[7] = test system: A-549 (human lung carcinoma); assay: General anti-tumour assay, A-549; type: cell-based
Description: as §1, §2

[8] = test system: CV-1 (monkey kidney fibroblast); assay: Cytotoxicity assay, CV-1; type: cell-based
Description: as §1, §2

[9] = test system: BHK cells

With `CC(C)=CC(=O)CC(C)C1CCC(C)c2c1cc(C)c1c2OCO1` (stereo not drawn) [AH-3, Helioporin C] the IC50 [1] was about 40 µg/mL (≈ 122 µM), the IC50 ([2]; Mesocricetus auratus, read-out: IC50 µg/ml approx) was about 1 µg/mL (≈ 3.04 µM) and the “activity (cell inhibition)” value ([2]; TEST CONC (µg) 0.2) was “- ((-) no activity - the number of cells is equal to the control of growth, 0-40% cell inhibition)”. For the same compound, the “activity (cell inhibition)” value ([2]; TEST CONC (µg) 0.5) was “- ((-) no activity - the number of cells is equal to the control of growth, 0-40% cell inhibition)”, the “activity (cell inhibition)” value ([2]; TEST CONC (µg) 1) was “+ ((+) low activity - numbers of cells are reduced by approx 50-60%)” and the “activity (cell inhibition)” value ([2]; TEST CONC (µg) 2) was “+++ ((+++) very good activity - there is 100% cell inhibition)”. For the same compound, the “activity (cell inhibition)” value ([2]; TEST CONC (µg) 5) was “+++ ((+++) very good activity - there is 100% cell inhibition)”, the “activity (cell inhibition)” value ([2]; TEST CONC (µg) 10) was “+++ ((+++) very good activity - there is 100% cell inhibition)” and the “activity (cell inhibition)” value ([2]; TEST CONC (µg) 20) was “+++ ((+++) very good activity - there is 100% cell inhibition)”. For the same compound, the IC50 ([3]; Mus musculus, P388, P-388, read-out: IC50 µg/ml approx) was about 1 µg/mL (≈ 3.04 µM), the “activity (cell inhibition)” value ([3]; P-388, TEST CONC (µg) 0.2) was “- ((-) no activity - the number of cells is equal to the control of growth, 0-40% cell inhibition)” and the “activity (cell inhibition)” value ([3]; P-388, TEST CONC (µg) 0.5) was “- ((-) no activity - the number of cells is equal to the control of growth, 0-40% cell inhibition)”. The “activity (cell inhibition)” value ([3]; P-388, TEST CONC (µg) 1) was “+ ((+) low activity - numbers of cells are reduced by approx 50-60%)”, the “activity (cell inhibition)” value ([3]; P-388, TEST CONC (µg) 2) was “++ ((++) good activity - numbers of cells are reduced by approx 70-90%)” and the “activity (cell inhibition)” value ([3]; P-388, TEST CONC (µg) 5) was “+++ ((+++) very good activity - there is 100% cell inhibition)”. For the same compound, the “activity (cell inhibition)” value ([3]; P-388, TEST CONC (µg) 10) was “+++ ((+++) very good activity - there is 100% cell inhibition)”, the “activity (cell inhibition)” value ([3]; P-388, TEST CONC (µg) 20) was “+++ ((+++) very good activity - there is 100% cell inhibition)” and the IC50 [4] was over 40 µg/mL. For the same compound, the IC50 ([5]; Homo sapiens, MCF7, MCF-7, read-out: IC50 µg/ml approx) was about 5 µg/mL (≈ 15.2 µM), the “activity (cell inhibition)” value ([5]; MCF-7, TEST CONC (µg) 0.2) was “- ((-) no activity - the number of cells is equal to the control of growth, 0-40% cell inhibition)” and the “activity (cell inhibition)” value ([5]; MCF-7, TEST CONC (µg) 0.5) was “- ((-) no activity - the number of cells is equal to the control of growth, 0-40% cell inhibition)”. The “activity (cell inhibition)” value ([5]; MCF-7, TEST CONC (µg) 1) was “- ((-) no activity - the number of cells is equal to the control of growth, 0-40% cell inhibition)”, the “activity (cell inhibition)” value ([5]; MCF-7, TEST CONC (µg) 2) was “- ((-) no activity - the number of cells is equal to the control of growth, 0-40% cell inhibition)” and the “activity (cell inhibition)” value ([5]; MCF-7, TEST CONC (µg) 5) was “+ ((+) low activity - numbers of cells are reduced by approx 50-60%)”. The “activity (cell inhibition)” value ([5]; MCF-7, TEST CONC (µg) 10) was “++ ((++) good activity - numbers of cells are reduced by approx 70-90%)”, the “activity (cell inhibition)” value ([5]; MCF-7, TEST CONC (µg) 20) was “+++ ((+++) very good activity - there is 100% cell inhibition)” and the “activity (cell inhibition)” value ([6]; HT-29, TEST CONC (µg) 0.2) was “- ((-) no activity - the number of cells is equal to the control of growth, 0-40% cell inhibition)”. The “activity (cell inhibition)” value ([6]; HT-29, TEST CONC (µg) 0.5) was “- ((-) no activity - the number of cells is equal to the control of growth, 0-40% cell inhibition)”, the “activity (cell inhibition)” value ([6]; HT-29, TEST CONC (µg) 1) was “- ((-) no activity - the number of cells is equal to the control of growth, 0-40% cell inhibition)” and the “activity (cell inhibition)” value ([6]; HT-29, TEST CONC (µg) 2) was “+ ((+) low activity - numbers of cells are reduced by approx 50-60%)”. The “activity (cell inhibition)” value ([6]; HT-29, TEST CONC (µg) 5) was “++ ((++) good activity - numbers of cells are reduced by approx 70-90%)”, the “activity (cell inhibition)” value ([6]; HT-29, TEST CONC (µg) 10) was “+++ ((+++) very good activity - there is 100% cell inhibition)” and the “activity (cell inhibition)” value ([6]; HT-29, TEST CONC (µg) 20) was “+++ ((+++) very good activity - there is 100% cell inhibition)”. The IC50 ([6]; Homo sapiens, HT-29, read-out: IC50 µg/ml approx) was about 2 µg/mL (≈ 6.09 µM), the “activity (cell inhibition)” value ([7]; A-549, TEST CONC (µg) 0.2) was “- ((-) no activity - the number of cells is equal to the control of growth, 0-40% cell inhibition)” and the “activity (cell inhibition)” value ([7]; A-549, TEST CONC (µg) 0.5) was “- ((-) no activity - the number of cells is equal to the control of growth, 0-40% cell inhibition)”. For the same compound, the “activity (cell inhibition)” value ([7]; A-549, TEST CONC (µg) 1) was “- ((-) no activity - the number of cells is equal to the control of growth, 0-40% cell inhibition)”, the “activity (cell inhibition)” value ([7]; A-549, TEST CONC (µg) 2) was “- ((-) no activity - the number of cells is equal to the control of growth, 0-40% cell inhibition)” and the “activity (cell inhibition)” value ([7]; A-549, TEST CONC (µg) 5) was “+ ((+) low activity - numbers of cells are reduced by approx 50-60%)”. The “activity (cell inhibition)” value ([7]; A-549, TEST CONC (µg) 10) was “+++ ((+++) very good activity - there is 100% cell inhibition)”, the “activity (cell inhibition)” value ([7]; A-549, TEST CONC (µg) 20) was “+++ ((+++) very good activity - there is 100% cell inhibition)” and the IC50 ([7]; Homo sapiens, A549, A-549, read-out: IC50 µg/ml approx) was about 5 µg/mL (≈ 15.2 µM). The “activity (cell inhibition)” value ([8]; CV-1, TEST CONC (µg) 0.2) was “- ((-) no activity - the number of cells is equal to the control of growth, 0-40% cell inhibition)”, the “activity (cell inhibition)” value ([8]; CV-1, TEST CONC (µg) 0.5) was “- ((-) no activity - the number of cells is equal to the control of growth, 0-40% cell inhibition)” and the “activity (cell inhibition)” value ([8]; CV-1, TEST CONC (µg) 1) was “- ((-) no activity - the number of cells is equal to the control of growth, 0-40% cell inhibition)”. The “activity (cell inhibition)” value ([8]; CV-1, TEST CONC (µg) 2) was “- ((-) no activity - the number of cells is equal to the control of growth, 0-40% cell inhibition)”, the “activity (cell inhibition)” value ([8]; CV-1, TEST CONC (µg) 5) was “- ((-) no activity - the number of cells is equal to the control of growth, 0-40% cell inhibition)” and the “activity (cell inhibition)” value ([8]; CV-1, TEST CONC (µg) 10) was “++ ((++) good activity - numbers of cells are reduced by approx 70-90%)”. The “activity (cell inhibition)” value ([8]; CV-1, TEST CONC (µg) 20) was “+++ ((+++) very good activity - there is 100% cell inhibition)”, the IC50 ([8]; Primates, CV-1, read-out: IC50 µg/ml approx) was 5 to 10 µg/mL (≈ 15.2 to 30.4 µM) and the “cytotoxicity (inhibition zone on the cell sheet)” value [9] was 0-.
